Laboratory results: US20050282755A1, “Compositions having antimicrobial activity and uses thereof” (priority 2004, published 2005)
Converted amounts (≈) assume the structure as drawn. Non-standard residues stand in square brackets, D forms with d. Residues, ends and D or L forms follow the SMILES beside them. *: point of attachment. Lauroyl = CCCCCCCCCCCC(=O)*

Key:
Type in all cases: cell-based
[1] = system: Candida albicans ATCC 18804; assay: MIC in yeasts, NCCLS M27-A2 broth microdilution, RPMI 1640 (Table 9, letter e); details: ATCC 18804
How it was run: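 Broth microdilution per NCCLS M27-A2 in RPMI 1640 with glutamine and phenol red, final inoculum 0.5×10^3–2.5×10^3 CFU/milliliter. Incubated 24 to 48 hours at 37° C; MIC is the lowest peptide concentration with no visible growth.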

[2] = system: Escherichia coli ATCC 25922; assay: MIC, NCCLS M7-A6 broth microdilution (Table 9, no superscript); details: ATCC 25922
How it was run: (§1)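 Broth microdilution in cation-adjusted Mueller Hinton broth with log-phase inoculum at 5×10^5 to 1×10^6 CFU/mL, incubated overnight at 37° C. MIC was the lowest peptide concentration showing no visible turbidity versus the no-peptide control.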

Salmonella dublin (Lane) = assay: as above
How it was run: as §1

[3] = system: Pseudomonas aeruginosa ATCC 27853; assay: as above; details: ATCC 27853
How it was run: as §1

[4] = system: Staphylococcus epidermidis ATCC 12228; assay: as above; details: ATCC 12228
How it was run: as §1

[5] = system: Staphylococcus aureus ATCC 29213; assay: MIC, NCCLS M7-A6 broth microdilution, cation-adjusted Mueller Hinton broth (Table 9, no superscript); details: ATCC 29213
How it was run: as §1

[6] = system: Propionibacterium acnes ATCC 6919; assay: MIC, agar dilution method NCCLS M11-A6, Brucella agar, anaerobic (Table 9, superscript c); details: ATCC 6919
How it was run: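 Agar dilution per NCCLS M11-A6 on Brucella agar; final inoculum 1.5×10^8 CFU/milliliter applied to plates, incubated 48-96 hours at 37° C. under anaerobic (GasPak) conditions. MIC = lowest peptide concentration with no colony growth.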

| SMILES | MIC C. albicans [1] [e ug/mL] | MIC E. coli [2] [µg/mL] | MIC S. dublin (Salmonella dublin (Lane)) [µg/mL] | MIC P. aeruginosa [3] [µg/mL] | MIC S. epidermidis [4] [µg/mL] | MIC S. aureus [5] [µg/mL] | MIC P. acnes [6] [c ug/mL] |
| --- | --- | --- | --- | --- | --- | --- | --- |
| CCCCCCCCCCCC(=O)N[C@H](CCCNC(=N)N)C(=O)N[C@H](CCCNC(=N)N)C(=O)N[C@H](CCCNC(=N)N)C(=O)N[C@H](Cc1c[nH]c2ccccc12)C(=O)N[C@H](CCCNC(=N)N)C(=O)N[C@H](CCCNC(=N)N)C(=O)N[C@@H](C(=O)N[C@H](C)C(=O)N[C@H](CCCNC(=N)N)C(=O)N[C@H](CCCNC(=N)N)C(=O)N[C@H](Cc1ccccc1)C(=O)N[C@H](CC(C)C)C(=O)N[C@H](CCCNC(=N)N)C(N)=O)C(C)C [Peptide 222, Lauryl-rrrwrrvarrflr-NH2] (Lauroyl-[dR][dR][dR][dW][dR][dR][dV][dA][dR][dR][dF][dL][dR]-NH2) | 2 | 16 (≈ 7.75 µM) | >64 | 8 (≈ 3.87 µM) | 1 (≈ 0.484 µM) | 4 (≈ 1.94 µM) | >64 |
| CCCCCCCCCCCC(=O)N[C@H](CCCNC(=N)N)C(=O)N[C@H](CCCCN)C(=O)N[C@H](CCCNC(=N)N)C(=O)N[C@H](Cc1c[nH]c2ccccc12)C(=O)N[C@H](CCCNC(=N)N)C(=O)N[C@H](CCCCN)C(=O)N[C@@H](C(=O)N[C@H](C)C(=O)N[C@H](CCCNC(=N)N)C(=O)N[C@H](CCCCN)C(=O)N[C@H](Cc1ccccc1)C(=O)N[C@H](CC(C)C)C(=O)N[C@H](CCCNC(=N)N)C(N)=O)C(C)C [Peptide 223, Lauryl-rkrwrkvarkflr-NH2] (Lauroyl-[dR][dK][dR][dW][dR][dK][dV][dA][dR][dK][dF][dL][dR]-NH2) | 4 | 16 (≈ 8.07 µM) | 32 (≈ 16.1 µM) | 8 (≈ 4.04 µM) | 2 (≈ 1.01 µM) | 4 (≈ 2.02 µM) | >64 |
| CCCCCCCCCCCC(=O)N[C@H](CCCNC(=N)N)C(=O)N[C@H](C)C(=O)N[C@H](CCCNC(=N)N)C(=O)N[C@H](Cc1c[nH]c2ccccc12)C(=O)N[C@H](CCCNC(=N)N)C(=O)N[C@H](CC(=O)O)C(=O)N[C@@H](C(=O)N[C@H](C)C(=O)N[C@H](CCCNC(=N)N)C(=O)N[C@H](CC(N)=O)C(=O)N[C@H](Cc1ccccc1)C(=O)N[C@H](CCSC)C(=O)N[C@H](CCCNC(=N)N)C(N)=O)C(C)C [Peptide 237, Lauryl-rarwrdvarnfmr-NH2] (Lauroyl-[dR][dA][dR][dW][dR][dD][dV][dA][dR][dN][dF][dM][dR]-NH2) | 16 | 4 (≈ 2.09 µM) | 4 (≈ 2.09 µM) | 8 (≈ 4.18 µM) | 1 (≈ 0.522 µM) | 4 (≈ 2.09 µM) | 16 |
| CCCCCCCCCCCC(=O)N[C@H](CCCNC(=N)N)C(=O)N[C@H](CO)C(=O)N[C@H](C)C(=O)N[C@H](Cc1c[nH]c2ccccc12)C(=O)N[C@H](CCCNC(=N)N)C(=O)N[C@H](CC(=O)O)C(=O)N[C@@H](C(=O)N[C@H](C)C(=O)N[C@H](CCCNC(=N)N)C(=O)N[C@H](CC(N)=O)C(=O)N[C@H](Cc1ccccc1)C(=O)N[C@H](CCSC)C(=O)N[C@H](CCCNC(=N)N)C(N)=O)C(C)C [Peptide 238, Lauryl-rsawrdvarnfmr-NH2] (Lauroyl-[dR][dS][dA][dW][dR][dD][dV][dA][dR][dN][dF][dM][dR]-NH2) | 16 | 8 (≈ 4.33 µM) | 8 (≈ 4.33 µM) | 64 (≈ 34.7 µM) | 8 (≈ 4.33 µM) | 8 (≈ 4.33 µM) | 32 |
| CCCCCCCCCCCC(=O)N[C@H](CCCNC(=N)N)C(=O)N[C@H](CO)C(=O)N[C@H](CCCNC(=N)N)C(=O)N[C@H](C)C(=O)N[C@H](CCCNC(=N)N)C(=O)N[C@H](CC(=O)O)C(=O)N[C@@H](C(=O)N[C@H](C)C(=O)N[C@H](CCCNC(=N)N)C(=O)N[C@H](CC(N)=O)C(=O)N[C@H](Cc1ccccc1)C(=O)N[C@H](CCSC)C(=O)N[C@H](CCCNC(=N)N)C(N)=O)C(C)C [Peptide 239, Lauryl-rsrardvarnfmr-NH2] (Lauroyl-[dR][dS][dR][dA][dR][dD][dV][dA][dR][dN][dF][dM][dR]-NH2) | 64 | 16 (≈ 8.81 µM) | 64 (≈ 35.2 µM) | 32 (≈ 17.6 µM) | 4 (≈ 2.2 µM) | 16 (≈ 8.81 µM) | 8 |
| CCCCCCCCCCCC(=O)N[C@H](CCCNC(=N)N)C(=O)N[C@H](CO)C(=O)N[C@H](CCCNC(=N)N)C(=O)N[C@H](Cc1c[nH]c2ccccc12)C(=O)N[C@H](C)C(=O)N[C@H](CC(=O)O)C(=O)N[C@@H](C(=O)N[C@H](C)C(=O)N[C@H](CCCNC(=N)N)C(=O)N[C@H](CC(N)=O)C(=O)N[C@H](Cc1ccccc1)C(=O)N[C@H](CCSC)C(=O)N[C@H](CCCNC(=N)N)C(N)=O)C(C)C [Peptide 240, Lauryl-rsrwadvarnfmr-NH2] (Lauroyl-[dR][dS][dR][dW][dA][dD][dV][dA][dR][dN][dF][dM][dR]-NH2) | 16 | 4 (≈ 2.17 µM) | 4 (≈ 2.17 µM) | 16 (≈ 8.67 µM) | 2 (≈ 1.08 µM) | 2 (≈ 1.08 µM) | 16 |
| CCCCCCCCCCCC(=O)N[C@H](CCCNC(=N)N)C(=O)N[C@H](CO)C(=O)N[C@H](CCCNC(=N)N)C(=O)N[C@H](Cc1c[nH]c2ccccc12)C(=O)N[C@H](CCCNC(=N)N)C(=O)N[C@H](CC(=O)O)C(=O)N[C@@H](C(=O)N[C@H](C)C(=O)N[C@H](CCCNC(=N)N)C(=O)N[C@H](CC(N)=O)C(=O)N[C@H](Cc1ccccc1)C(=O)N[C@H](CCSC)C(=O)N[C@H](CCCNC(=N)N)C(=O)N[C@H](CS)C(N)=O)C(C)C [Peptide 247, Lauryl-rsrwrdvarnfmrc-NH2] (Lauroyl-[dR][dS][dR][dW][dR][dD][dV][dA][dR][dN][dF][dM][dR][dC]-NH2) | 64 | 64 (≈ 31.5 µM) | 64 (≈ 31.5 µM) | >64 | 32 (≈ 15.7 µM) | 16 (≈ 7.86 µM) | >64 |
| CCCCCCCCCCCC(=O)N[C@H](CCCNC(=N)N)C(=O)N[C@H](CO)C(=O)N[C@H](CCCNC(=N)N)C(=O)N[C@H](Cc1c[nH]c2ccccc12)C(=O)N[C@H](CCCNC(=N)N)C(=O)N[C@H](CC(=O)O)C(=O)N[C@@H](C(=O)N[C@H](C)C(=O)N[C@H](CCCNC(=N)N)C(=O)N[C@H](CC(=O)O)C(=O)N[C@H](Cc1ccccc1)C(=O)N[C@H](CCSC)C(=O)N[C@H](CCCNC(=N)N)C(N)=O)C(C)C [Peptide 249, Lauryl-rsrwrdvardfmr-NH2] (Lauroyl-[dR][dS][dR][dW][dR][dD][dV][dA][dR][dD][dF][dM][dR]-NH2) | 8 | 4 (≈ 2.07 µM) | 4 (≈ 2.07 µM) | 8 (≈ 4.14 µM) | 2 (≈ 1.04 µM) | 2 (≈ 1.04 µM) | 8 |
